This assay deals with 5-hydroxytryptamine receptor 6 (Homo sapiens, UniProt P50406). Kind of assay: Antagonist activity at 5-HT6 receptor (unknown origin).

We go through two compounds from ChEMBL document CHEMBL3352589, “The use of spirocyclic scaffolds in drug discovery” (Bioorg Med Chem Lett, 2014).

5-hydroxytryptamine receptor 6, sequence (P50406 whole entry): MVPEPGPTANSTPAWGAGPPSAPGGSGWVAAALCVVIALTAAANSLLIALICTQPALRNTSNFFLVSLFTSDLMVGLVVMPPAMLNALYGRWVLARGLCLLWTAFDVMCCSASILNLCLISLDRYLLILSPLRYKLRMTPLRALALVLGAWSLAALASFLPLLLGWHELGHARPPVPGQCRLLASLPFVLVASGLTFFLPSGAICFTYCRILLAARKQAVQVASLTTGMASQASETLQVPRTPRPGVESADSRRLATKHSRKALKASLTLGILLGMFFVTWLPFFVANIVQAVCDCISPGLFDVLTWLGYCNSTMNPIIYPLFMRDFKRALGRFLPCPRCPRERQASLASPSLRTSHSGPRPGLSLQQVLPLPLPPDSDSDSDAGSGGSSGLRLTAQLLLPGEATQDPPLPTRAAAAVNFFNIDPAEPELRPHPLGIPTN

One may read the Ki as a dissociation constant, usually derived from enzyme kinetics or from competition with a known ligand. Higher therefore signals a looser hold on the target. `CN1CCc2ccc(N3C(=O)CSC34C(=O)Nc3ccccc34)cc2CC1` (racemic) registered a Ki of 26 nM.

`CN1CCc2ccc(N3C(=O)CSC34C(=O)Nc3ccccc34)cc2CC1` (single isomer, unassigned) returned a Ki of 15 nM.
